From ChEMBL document CHEMBL5465560, “Selectivity Literature for EUbOPEN Chemogenomic Library” (2024)

What was measured:
[1] = target: Lethal(3)malignant brain tumor-like protein 3 (Homo sapiens) (UniProt Q96JM7); test: Selectivity interaction (PWWP, WD40, and Tudor domain panel (DSLS measurements, literature)) EUB0000270b L3MBTL3
[2] = target: Serine/threonine-protein kinase 32C (Homo sapiens) (UniProt Q86UX6); test: Selectivity interaction (KinomeScan (DiscoverX)) EUB0000595a STK32C; conditions: at 10 µM
[3] = target: Protein kinase C theta type (Homo sapiens, UniProt Q04759); test: Selectivity interaction (KinomeScan (DiscoverX)) EUB0001079a PRKCQ; conditions: at 1 µM
[4] = target: T1, Serine/threonine-protein kinase BRSK1 (Homo sapiens) (UniProt Q8TDC3); test: Selectivity interaction (Upstate Kinase Profiler service (Millipore)) EUB0000056c BRSK1; conditions: at 1 µM
T1 sequence (whole entry): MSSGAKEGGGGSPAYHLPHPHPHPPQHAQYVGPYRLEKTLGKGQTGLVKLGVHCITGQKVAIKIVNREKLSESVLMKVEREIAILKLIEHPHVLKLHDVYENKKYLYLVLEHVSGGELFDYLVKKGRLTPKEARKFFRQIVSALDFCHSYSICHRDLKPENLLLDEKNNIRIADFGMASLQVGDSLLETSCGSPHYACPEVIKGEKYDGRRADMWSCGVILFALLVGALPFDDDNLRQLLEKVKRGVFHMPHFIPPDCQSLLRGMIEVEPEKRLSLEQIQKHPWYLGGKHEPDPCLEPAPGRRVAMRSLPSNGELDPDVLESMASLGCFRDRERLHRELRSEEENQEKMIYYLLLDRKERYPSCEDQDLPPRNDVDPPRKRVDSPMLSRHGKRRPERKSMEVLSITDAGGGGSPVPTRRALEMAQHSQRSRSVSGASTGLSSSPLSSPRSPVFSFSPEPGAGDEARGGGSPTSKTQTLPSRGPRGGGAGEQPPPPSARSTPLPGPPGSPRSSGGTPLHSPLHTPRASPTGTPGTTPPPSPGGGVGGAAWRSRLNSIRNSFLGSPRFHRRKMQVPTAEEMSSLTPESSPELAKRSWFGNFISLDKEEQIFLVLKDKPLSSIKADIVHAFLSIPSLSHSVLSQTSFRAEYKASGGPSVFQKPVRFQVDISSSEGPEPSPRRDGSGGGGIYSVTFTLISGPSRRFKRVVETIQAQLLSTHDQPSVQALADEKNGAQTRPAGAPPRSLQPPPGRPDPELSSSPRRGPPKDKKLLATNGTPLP

[5] = target: T2, Serine/threonine-protein kinase haspin (Homo sapiens) (UniProt Q8TF76); test: Selectivity interaction (KinomeScan (DiscoverX)) EUB0001619a GSG2; conditions: at 1 µM
T2 sequence (whole entry): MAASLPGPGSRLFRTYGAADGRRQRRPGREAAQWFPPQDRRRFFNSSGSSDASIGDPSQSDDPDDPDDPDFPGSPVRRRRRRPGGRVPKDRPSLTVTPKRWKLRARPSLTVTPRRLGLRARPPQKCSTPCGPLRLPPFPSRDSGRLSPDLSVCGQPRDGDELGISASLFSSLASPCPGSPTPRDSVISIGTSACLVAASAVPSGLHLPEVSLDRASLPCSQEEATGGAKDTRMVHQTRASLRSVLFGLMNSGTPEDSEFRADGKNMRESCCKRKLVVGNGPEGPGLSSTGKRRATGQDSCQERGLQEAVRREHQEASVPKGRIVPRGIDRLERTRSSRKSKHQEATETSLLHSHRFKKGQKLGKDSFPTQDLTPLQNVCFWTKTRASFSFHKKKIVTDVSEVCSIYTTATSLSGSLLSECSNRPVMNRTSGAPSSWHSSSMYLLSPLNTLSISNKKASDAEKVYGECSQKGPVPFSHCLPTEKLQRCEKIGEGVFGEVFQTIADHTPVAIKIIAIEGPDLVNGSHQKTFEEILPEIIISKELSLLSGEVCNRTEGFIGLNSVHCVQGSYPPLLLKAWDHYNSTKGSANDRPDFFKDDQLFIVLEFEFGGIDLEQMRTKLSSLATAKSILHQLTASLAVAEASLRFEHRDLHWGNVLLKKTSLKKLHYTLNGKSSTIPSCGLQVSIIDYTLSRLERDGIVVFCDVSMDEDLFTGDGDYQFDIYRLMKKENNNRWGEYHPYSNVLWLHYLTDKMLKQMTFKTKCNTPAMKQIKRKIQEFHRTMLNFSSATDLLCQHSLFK

[6] = target: T3, Interleukin-1 receptor-associated kinase 3 (Homo sapiens) (UniProt Q9Y616); test: Selectivity interaction (KinomeScan (DiscoverX)) EUB0000607a IRAK3; conditions: at 10 µM
T3 sequence (whole entry): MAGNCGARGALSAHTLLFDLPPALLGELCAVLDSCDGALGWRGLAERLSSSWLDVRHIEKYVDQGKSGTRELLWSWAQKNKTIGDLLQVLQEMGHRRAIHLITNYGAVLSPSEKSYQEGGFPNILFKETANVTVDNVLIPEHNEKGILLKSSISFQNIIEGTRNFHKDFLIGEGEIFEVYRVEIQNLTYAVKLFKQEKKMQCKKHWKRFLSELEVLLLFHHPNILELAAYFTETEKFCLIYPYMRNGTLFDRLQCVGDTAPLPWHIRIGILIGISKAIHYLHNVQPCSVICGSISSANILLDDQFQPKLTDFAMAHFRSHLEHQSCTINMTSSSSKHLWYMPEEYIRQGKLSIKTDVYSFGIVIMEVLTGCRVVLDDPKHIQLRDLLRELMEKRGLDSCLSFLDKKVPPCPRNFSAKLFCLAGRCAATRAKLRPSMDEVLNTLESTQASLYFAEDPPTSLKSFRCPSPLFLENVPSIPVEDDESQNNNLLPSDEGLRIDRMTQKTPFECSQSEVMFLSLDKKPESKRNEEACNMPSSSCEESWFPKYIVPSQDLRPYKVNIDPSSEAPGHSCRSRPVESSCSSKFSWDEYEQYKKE

[7] = target: T4, Aurora kinase A (Homo sapiens) (UniProt O14965); test: Selectivity interaction (Kinase panel (KiNativ target engagement assay in Jurkat cells)) EUB0001635a STK6; assay type: cell-based; conditions: at 1 µM
T4 sequence (whole entry): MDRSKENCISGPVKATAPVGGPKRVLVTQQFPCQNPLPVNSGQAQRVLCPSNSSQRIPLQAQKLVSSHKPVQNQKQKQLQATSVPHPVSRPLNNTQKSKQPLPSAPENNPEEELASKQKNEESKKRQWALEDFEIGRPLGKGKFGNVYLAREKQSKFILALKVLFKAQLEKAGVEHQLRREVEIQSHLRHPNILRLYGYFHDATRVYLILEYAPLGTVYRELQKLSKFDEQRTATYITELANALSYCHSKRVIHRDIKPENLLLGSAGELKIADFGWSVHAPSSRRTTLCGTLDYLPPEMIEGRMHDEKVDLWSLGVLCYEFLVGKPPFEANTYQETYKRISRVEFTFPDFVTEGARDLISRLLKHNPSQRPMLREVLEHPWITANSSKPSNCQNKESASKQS

Sequence of Serine/threonine-protein kinase 32C (Homo sapiens) (Q86UX6 whole entry): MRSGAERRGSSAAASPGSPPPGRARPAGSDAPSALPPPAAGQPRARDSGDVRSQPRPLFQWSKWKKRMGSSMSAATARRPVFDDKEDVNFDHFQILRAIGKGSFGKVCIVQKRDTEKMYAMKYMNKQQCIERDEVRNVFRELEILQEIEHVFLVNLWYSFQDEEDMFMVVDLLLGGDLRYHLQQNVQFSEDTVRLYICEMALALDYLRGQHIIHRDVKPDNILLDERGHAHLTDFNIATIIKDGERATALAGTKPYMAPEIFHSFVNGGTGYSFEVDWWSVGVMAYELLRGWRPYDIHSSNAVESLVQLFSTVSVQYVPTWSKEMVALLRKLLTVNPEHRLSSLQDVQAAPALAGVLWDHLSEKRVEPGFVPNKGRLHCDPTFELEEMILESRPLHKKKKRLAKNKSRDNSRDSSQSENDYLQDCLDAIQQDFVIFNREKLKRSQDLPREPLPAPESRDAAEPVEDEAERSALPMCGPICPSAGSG
Sequence of Lethal(3)malignant brain tumor-like protein 3 (Homo sapiens) (Q96JM7 whole entry, the tested form may be a part): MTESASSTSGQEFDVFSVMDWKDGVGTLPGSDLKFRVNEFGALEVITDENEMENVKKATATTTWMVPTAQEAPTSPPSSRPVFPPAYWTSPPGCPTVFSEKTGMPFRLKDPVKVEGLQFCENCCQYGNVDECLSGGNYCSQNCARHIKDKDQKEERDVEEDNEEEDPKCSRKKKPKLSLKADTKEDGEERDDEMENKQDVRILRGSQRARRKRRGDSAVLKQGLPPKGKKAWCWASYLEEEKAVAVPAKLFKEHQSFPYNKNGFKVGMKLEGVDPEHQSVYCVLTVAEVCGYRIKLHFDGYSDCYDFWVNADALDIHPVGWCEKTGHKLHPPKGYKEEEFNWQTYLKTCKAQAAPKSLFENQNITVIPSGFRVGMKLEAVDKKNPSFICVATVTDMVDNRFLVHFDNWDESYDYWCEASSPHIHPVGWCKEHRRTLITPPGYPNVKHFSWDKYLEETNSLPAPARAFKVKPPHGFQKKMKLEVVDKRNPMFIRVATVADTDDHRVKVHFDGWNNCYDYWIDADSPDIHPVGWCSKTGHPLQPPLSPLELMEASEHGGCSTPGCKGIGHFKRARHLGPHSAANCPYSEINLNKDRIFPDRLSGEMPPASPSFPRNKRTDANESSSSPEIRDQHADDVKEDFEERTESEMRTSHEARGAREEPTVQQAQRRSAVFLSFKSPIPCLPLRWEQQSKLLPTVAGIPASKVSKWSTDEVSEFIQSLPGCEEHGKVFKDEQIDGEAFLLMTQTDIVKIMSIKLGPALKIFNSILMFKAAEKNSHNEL
Sequence of Protein kinase C theta type (Q04759 whole entry, looked up): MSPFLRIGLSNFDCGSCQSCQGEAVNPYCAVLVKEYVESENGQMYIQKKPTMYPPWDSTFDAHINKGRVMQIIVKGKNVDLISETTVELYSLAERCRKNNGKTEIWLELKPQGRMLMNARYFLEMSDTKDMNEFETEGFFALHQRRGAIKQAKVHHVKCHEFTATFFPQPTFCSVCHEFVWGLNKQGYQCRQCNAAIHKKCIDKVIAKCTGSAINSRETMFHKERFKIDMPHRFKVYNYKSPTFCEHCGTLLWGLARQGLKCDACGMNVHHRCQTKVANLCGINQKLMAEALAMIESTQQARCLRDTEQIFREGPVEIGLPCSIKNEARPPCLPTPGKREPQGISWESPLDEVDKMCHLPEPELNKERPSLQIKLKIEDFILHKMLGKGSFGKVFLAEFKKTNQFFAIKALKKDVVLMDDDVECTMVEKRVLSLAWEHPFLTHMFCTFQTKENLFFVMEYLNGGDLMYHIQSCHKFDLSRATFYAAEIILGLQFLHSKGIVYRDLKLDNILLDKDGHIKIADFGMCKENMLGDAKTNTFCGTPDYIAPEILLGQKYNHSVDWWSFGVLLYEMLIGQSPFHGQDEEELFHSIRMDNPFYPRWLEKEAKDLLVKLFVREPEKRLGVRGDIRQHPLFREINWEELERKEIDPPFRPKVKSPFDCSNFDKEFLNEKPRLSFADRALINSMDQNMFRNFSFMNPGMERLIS

Compound `Cc1cc(CN)cc(C)c1-c1ncn(C)c1-c1cncn1C` has a dTagg [1] of 0.2 K.
Compound `COCC(=O)NC/C=C/c1ccc2ncnc(Nc3ccc(Oc4ccc(C)nc4)c(C)c3)c2c1` [CP-724714] has a % of control [2] of 86%.
`Nc1cnc(N2CCc3cc(S(=O)(=O)Nc4c(F)cc(Cl)cc4F)cc(N4CCCC4=O)c32)nc1` [TP-020n] gave a % of control [3] of 89%.
In the case of `Cc1ccc(-c2ccc3c(ccc4sc5c(c43)NC[C@@H](C)NC5=O)n2)cn1`, the % of inhibition [4] is reported as 80%.
`N#Cc1cccc(-c2c[nH]c3ncnc(N4CCOCC4)c23)c1` was tested, and the % of control [5] was 46%.
`CNC(=O)Nc1ccc(-c2nc(N3CC4CCC(C3)O4)c3cnn(C4CCC5(CC4)OCCO5)c3n2)cc1` gave a % of control [6] of 100%.
For `C=CC(=O)Nc1ccc(C(=O)Nc2[nH]nc3c2CN(C(=O)N[C@H](CN(C)C)c2ccccc2)C3(C)C)cc1`, the % of engagement [7] was 14.1%.
